According to patent EP4603105A1, “PHARMACEUTICAL COMPOSITION CONTAINING CYCLIC COMPOUND HAVING SELECTIVE KRAS INHIBITORY EFFECT AGAINST HRAS AND NRAS” (CHUGAI SEIYAKU KABUSHIKI KAISHA, priority 2022, dated 2024):
Where a SMILES comes first, the peptide text is derived from it. Bridges are numbered along the chain shown (N, C = ends). [ ]: non-standard residue; d: D form. The star is where a group is joined. hPhe(3,5-F2-4-CF3) = N[C@@H](CCc1cc(F)c(C(F)(F)F)c(F)c1)C(=O)O; NPrPhe(4-CF3) = CCCN[C@@H](Cc1ccc(C(F)(F)F)cc1)C(=O)O; NMeGly(cPent) = CN[C@H](C(=O)O)C1CCCC1; NMeD = CN[C@@H](CC(=O)O)C(=O)O; NMeL = CN[C@@H](CC(C)C)C(=O)O; αMeS = C[C@](N)(CO)C(=O)O; Morpholide = C1CN(*)CCO1; Aze = O=C(O)[C@@H]1CCN1; Sar = CNCC(=O)O; Allyl = C=CC*

Experiments:
[1] = target: GDP-bound KRAS wild-type protein (Homo sapiens, UniProt P01116); assay: Binding to KRAS by surface plasmon resonance (SPR), dissociation constant KD
GDP-bound KRAS wild-type protein, sequence (P01116 1-188 isoform P01116-2): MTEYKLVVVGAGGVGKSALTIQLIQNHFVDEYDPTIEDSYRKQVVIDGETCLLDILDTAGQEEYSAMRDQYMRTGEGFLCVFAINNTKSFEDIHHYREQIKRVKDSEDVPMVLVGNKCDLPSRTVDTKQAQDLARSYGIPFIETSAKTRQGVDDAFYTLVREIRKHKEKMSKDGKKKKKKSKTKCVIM
Procedure, shortened: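 GDP-bound biotin-Avi RAS captured at ~100–300 RU, 30°C, pH 7.4 HBS containing 10 µM GDP, 10 mM MgCl2, 1 mM DTT, 0.01% Tween 20 and 4% DMSO. KD by 1:1 fitting.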

HRAS wild-type protein = HRAS wild-type protein (Homo sapiens, UniProt P01112); assay: Binding to HRAS by surface plasmon resonance (SPR), KD and KD ratio to KRAS
HRAS wild-type protein, sequence (P01112 whole entry): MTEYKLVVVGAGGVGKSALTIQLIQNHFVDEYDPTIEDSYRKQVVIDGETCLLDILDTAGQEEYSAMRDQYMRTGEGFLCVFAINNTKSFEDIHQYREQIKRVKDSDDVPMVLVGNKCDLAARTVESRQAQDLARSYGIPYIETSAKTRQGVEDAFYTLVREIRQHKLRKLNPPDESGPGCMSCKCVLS
Procedure, shortened: (§1)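 Affinity is measured by surface plasmon resonance at 30°C against captured, GDP-loaded RAS carrying a biotinylated Avi tag. Compounds are titrated by single-cycle kinetics, and KD comes from a 1:1 fit.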

[2] = test system: human lung cancer strain NCI-H441; format: cell-based
Procedure, shortened: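 Readout: […] after the ATP-based reagent. Compound: serial dilutions in dimethyl sulfoxide.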

[3] = target: GDP-bound NRAS wild-type protein (Homo sapiens, UniProt P01111); assay: Binding to NRAS by surface plasmon resonance (SPR), KD and KD ratio to KRAS
GDP-bound NRAS wild-type protein, sequence (P01111 whole entry): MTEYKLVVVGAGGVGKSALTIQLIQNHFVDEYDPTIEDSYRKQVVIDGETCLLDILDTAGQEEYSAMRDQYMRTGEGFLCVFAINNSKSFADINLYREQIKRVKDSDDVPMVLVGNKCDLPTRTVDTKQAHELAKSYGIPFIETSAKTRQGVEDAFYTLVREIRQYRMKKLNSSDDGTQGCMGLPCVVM
Procedure, shortened: as §1

[4] = Single Cycle Kinetics, 1:1 binding model
[5] = ratio of the KD value with respect to HRAS wild-type protein to the KD value with respect to KRAS
[6] = ratio of the KD value with respect to GDP-bound NRAS wild-type protein to the KD value with respect to KRAS
[7] = ratio of KD for HRAS wild-type protein to KD for KRAS
[8] = ratio of KD for GDP-bound NRAS wild-type protein to KD for KRAS

Row | SMILES | Kd [1, 4] | HRAS /KRAS (HRAS wild-type protein; [5]) | IC50 [2] | NRAS /KRAS [3, 6] | Kd ([1]; 1:1 binding model) | HRAS /KRAS (HRAS wild-type protein; [7]) | NRAS /KRAS [3, 8] | Kd ([1]; Single Cycle Kinetics)
1 | CC[C@H](C)[C@@H]1NC(=O)[C@@H](CC(C)C)N(C)C(=O)C[C@@H](C(=O)N2CCOCC2)N(C)C(=O)[C@H](C2CCCC2)N(C)C(=O)C2(CCCC2)NC(=O)[C@@H]2CCCN2C(=O)[C@H](CCc2cc(F)c(C(F)(F)F)c(F)c2)NC(=O)CN(C)C(=O)[C@H](Cc2ccc(C(F)(F)F)cc2)N2CCCC[C@@H](C2=O)N(C)C(=O)CN(C)C1=O [PP0591] | 87 nM | B (a compound having 3 or more and less than 10 is denoted as B) | 3890 nM | B (a compound having 3 or more and less than 10 is denoted as B) |  |  |  | 
2 | CCC[C@H]1C(=O)N[C@@H](C2CCCCC2)C(=O)N(C)CC(=O)N(C)[C@H]2C/C=C\CCN(C2=O)[C@@H](Cc2ccc(C)cc2)C(=O)N(C)CC(=O)N[C@@H](CCc2ccc(C(F)(F)F)c(Cl)c2)C(=O)N2C[C@H](OCC)C[C@H]2C(=O)NC2(CC(C)(C)C2)C(=O)N(C)[C@@H](CC(C)C)C(=O)N(C)[C@H](C(=O)N(C)C)CC(=O)N1C [PP3021] |  |  | 76.7 nM |  | 1.1 nM | A (a compound having 10 or more and less than 20 is denoted as A) | AA (a compound having 20 or more is denoted as AA) | 
3 | C=CCOC[C@]1(C)NC(=O)[C@@H]2CCCN2C(=O)[C@H](CCc2cc(F)c(C(F)(F)F)c(F)c2)NC(=O)CN(C)C(=O)[C@H](Cc2ccc(C(F)(F)F)cc2)N(CCC)C(=O)CN(C)C(=O)[C@@H]2CCN2C(=O)[C@H]([C@@H](C)CC)NC(=O)[C@H](CC(C)C)N(C)C(=O)C[C@@H](C(=O)N2CCOCC2)N(C)C(=O)[C@H](C2CCCC2)N(C)C1=O [PP0780] ([NMeL]I[Aze][Sar][NPrPhe(4-CF3)][Sar][hPhe(3,5-F2-4-CF3)]P[αMeS](Allyl)[NMeGly(cPent)][NMeD]-Morpholide; lactam N-11) |  |  | 527 nM |  |  | B (a compound having 3 or more and less than 10 is denoted as B) | B (a compound having 3 or more and less than 10 is denoted as B) | 7.8 nM
4 | CCO[C@@H]1C[C@H]2C(=O)NC3(CCC3)C(=O)N(C)[C@@H](C3CCCC3)C(=O)N(CC)[C@H](C(=O)N3CCOCC3)CC(=O)N(C)[C@@H](CC(C)C)C(=O)N[C@@H]([C@@H](C)CC)C(=O)N(C)CC(=O)N(C)[C@H]3CCCCCN(C3=O)[C@@H](Cc3ccc(C(F)(F)F)cc3)C(=O)N(C)CC(=O)N[C@@H](CCc3cc(F)c(C(F)(F)F)c(F)c3)C(=O)N2C1 [PP0638] | 3.4 nM | B (a compound having 3 or more and less than 10 is denoted as B) | 341 nM | B (a compound having 3 or more and less than 10 is denoted as B) |  |  |  | 
5 | CCO[C@@H]1C[C@H]2C(=O)NC3(CCC3)C(=O)N(C)[C@@H](C3CCCC3)C(=O)N(C)[C@H](C(=O)N(C)C)CC(=O)N(CC)[C@@H](CC(C)C)C(=O)N[C@@H]([C@@H](C)CC)C(=O)N(C)CC(=O)N(C)[C@H]3CC(C)=C(C)CN(C3=O)[C@@H](Cc3ccc(C(F)(F)F)cc3)C(=O)N(C)CC(=O)N[C@@H](CCc3cc(F)c(C(F)(F)F)c(F)c3)C(=O)N2C1 [PP1051] |  |  | 286 nM |  |  | C (A compound having a KD ratio of 0.1 or more and less than 3 is denoted as C) | C (A compound having a KD ratio of 0.1 or more and less than 3 is denoted as C) | 1.8 nM
6 | CCO[C@@H]1C[C@H]2C(=O)NC3(CC(C)(C)C3)C(=O)N(C)[C@@H](C3CCCC3)C(=O)N(C)[C@H](C(=O)N(C)C)CC(=O)N(C)[C@@H]([C@H](C)OC)C(=O)N[C@@H]([C@@H](C)CC)C(=O)N3CCC[C@H]3C(=O)N(C)[C@H]3C/C=C\CCN(C3=O)[C@@H](Cc3ccc(C(F)(F)F)cc3)C(=O)N(C)CC(=O)N[C@@H](CCc3ccc(C(F)(F)F)c(Cl)c3)C(=O)N2C1 [PP3183] |  |  | 63.6 nM |  | 1.2 nM | B (a compound having 3 or more and less than 10 is denoted as B) | B (a compound having 3 or more and less than 10 is denoted as B) | 
7 | CC[C@H](C)[C@@H]1NC(=O)[C@H](CC(C)C)N(C)C(=O)C[C@@H](C(=O)N(C)C)N(C)C(=O)[C@H](C2CCCC2)N(C)C(=O)C2(CCCC2)NC(=O)[C@@H]2C[C@@H](C)CN2C(=O)[C@H](CCc2cc(F)c(C(F)(F)F)c(F)c2)NC(=O)CN(C)C(=O)[C@H](Cc2ccc(C)cc2)N2CC/C=C\C[C@@H](C2=O)N(C)C(=O)CN(C)C1=O [PP2189] | 0.17 nM | A (a compound having 10 or more and less than 20 is denoted as A) | 10.5 nM | A (a compound having 10 or more and less than 20 is denoted as A) |  |  |  | 
8 | C=CCN1CC(=O)N(C)[C@H]2C/C=C\CCN(C2=O)[C@@H](Cc2ccc(C)cc2)C(=O)N(C)CC(=O)N[C@@H](CCc2ccc(C(F)(F)F)c(OC)c2)C(=O)N2C[C@H](OCC)C[C@H]2C(=O)NC2(CC(C)(C)C2)C(=O)N(C)[C@@H](C2CCCC2)C(=O)N(C)[C@H](C(=O)N(C)C)CC(=O)N(C)[C@@H](CC(C)C)C(=O)N[C@@H]([C@@H](C)CC)C1=O [PP2058] | 0.21 nM | A (a compound having 10 or more and less than 20 is denoted as A) | 3.7 nM | A (a compound having 10 or more and less than 20 is denoted as A) |  |  |  | 
9 | CCO[C@@H]1C[C@H]2C(=O)NC3(CC(C)(C)C3)C(=O)N(C)[C@@H](C3CCCC3)C(=O)N(C)[C@H](C(=O)N(C)CC)CC(=O)N(C)[C@@H](CC(C)C)C(=O)N[C@@H]([C@@H](C)CC)C(=O)N(C)CC(=O)N(C)[C@H]3C/C=C\CCN(C3=O)[C@@H](Cc3ccc(C(F)F)cc3)C(=O)N(C)CC(=O)N[C@@H](CCc3cc(C)c(C(F)F)c(C)c3)C(=O)N2C1 [PP3144] |  |  | 72.7 nM |  | 4.3 nM | A (a compound having 10 or more and less than 20 is denoted as A) | A (a compound having 10 or more and less than 20 is denoted as A) | 
10 | CC[C@H](C)[C@@H]1NC(=O)[C@H](Cc2cccc(F)c2)N(C)C(=O)C[C@@H](C(=O)N2CCOCC2)N(C)C(=O)[C@H](C2CCCC2)N(C)C(=O)C2(CCCC2)NC(=O)[C@@H]2CCCN2C(=O)[C@H](CCc2ccc(C(F)(F)F)c(Cl)c2)NC(=O)CN(C)C(=O)[C@H](Cc2ccc(F)cc2)N2CCCCC[C@@H](C2=O)N(C)C(=O)CN(C)C1=O [PP0962] |  |  | 83.9 nM |  |  | B (a compound having 3 or more and less than 10 is denoted as B) | B (a compound having 3 or more and less than 10 is denoted as B) | 0.65 nM
11 | C#CC[C@H]1C(=O)N[C@@H]([C@@H](C)CC)C(=O)N(C)CC(=O)N(C)[C@H]2C/C=C\CCN(C2=O)[C@@H](Cc2ccc(C(F)(F)F)cc2)C(=O)N(C)CC(=O)N[C@@H](CCc2ccc(C(F)(F)F)c(OC)c2)C(=O)N2C[C@H](F)C[C@H]2C(=O)NC2(CC(C)(C)C2)C(=O)N(C)[C@@H](CCC=C)C(=O)N(C)[C@H](C(=O)N2CCCC2)CC(=O)N1C [PP3132] |  |  | 245 nM |  | 3.5 nM | A (a compound having 10 or more and less than 20 is denoted as A) | A (a compound having 10 or more and less than 20 is denoted as A) | 
12 | CCC[C@H]1C(=O)N[C@@H]([C@@H](C)CC)C(=O)N(CCC)CC(=O)N(C)[C@H]2C/C=C\CCN(C2=O)[C@@H](Cc2ccc(C)cc2)C(=O)N(C)CC(=O)N[C@@H](CCc2cc(F)c(C(F)(F)F)c(F)c2)C(=O)N2C[C@H](OCC)C[C@H]2C(=O)NC2(CC(C)(C)C2)C(=O)N(C)[C@@H](C2CCCC2)C(=O)N(C)[C@H](C(=O)N(C)C)CC(=O)N1C [PP2108] | 0.34 nM | A (a compound having 10 or more and less than 20 is denoted as A) | 17.6 nM | A (a compound having 10 or more and less than 20 is denoted as A) |  |  |  | 
13 | C#CC[C@H]1C(=O)N[C@@H]([C@@H](C)CC)C(=O)N(C)CC(=O)N(C)[C@H]2C/C=C\CCN(C2=O)[C@@H](Cc2ccc(C)cc2)C(=O)N(C)CC(=O)N[C@@H](CCc2cc(F)c(C(F)(F)F)c(F)c2)C(=O)N2CC3(CC3)C[C@H]2C(=O)NC2(CC(C)(C)C2)C(=O)N(C)[C@@H](C2CCCC2)C(=O)N(C)[C@H](C(=O)N(C)C)CC(=O)N1C [PP2978] |  |  | 5.9 nM |  | 0.11 nM | A (a compound having 10 or more and less than 20 is denoted as A) | A (a compound having 10 or more and less than 20 is denoted as A) | 
14 | CCO[C@@H]1C[C@H]2C(=O)NC3(CCC3)C(=O)N(C)[C@@H]([C@H](C)CC)C(=O)N(C)[C@H](C(=O)N3CCOCC3)CC(=O)N(C)[C@@H](CC(C)C)C(=O)N[C@@H]([C@@H](C)CC)C(=O)N(C)CC(=O)N(C)[C@H]3CCCCCN(C3=O)[C@@H](Cc3ccc(C(F)(F)F)cc3)C(=O)N(C)CC(=O)N[C@@H](CCc3cc(F)c(C(F)(F)F)c(F)c3)C(=O)N2C1 [PP0821] |  |  | 250 nM |  |  | B (a compound having 3 or more and less than 10 is denoted as B) | A (a compound having 10 or more and less than 20 is denoted as A) | 2 nM
